From ChEMBL document CHEMBL3352570, “ST7612AA1, a thioacetate-ω(γ-lactam carboxamide) derivative selected from a novel generation of oral HDAC inhibitors” (J Med Chem, 2014)

Biological target: T1, Protein deacetylase HDAC6 (Homo sapiens, UniProt Q9UBN7)
T1 sequence (Q9UBN7 whole entry): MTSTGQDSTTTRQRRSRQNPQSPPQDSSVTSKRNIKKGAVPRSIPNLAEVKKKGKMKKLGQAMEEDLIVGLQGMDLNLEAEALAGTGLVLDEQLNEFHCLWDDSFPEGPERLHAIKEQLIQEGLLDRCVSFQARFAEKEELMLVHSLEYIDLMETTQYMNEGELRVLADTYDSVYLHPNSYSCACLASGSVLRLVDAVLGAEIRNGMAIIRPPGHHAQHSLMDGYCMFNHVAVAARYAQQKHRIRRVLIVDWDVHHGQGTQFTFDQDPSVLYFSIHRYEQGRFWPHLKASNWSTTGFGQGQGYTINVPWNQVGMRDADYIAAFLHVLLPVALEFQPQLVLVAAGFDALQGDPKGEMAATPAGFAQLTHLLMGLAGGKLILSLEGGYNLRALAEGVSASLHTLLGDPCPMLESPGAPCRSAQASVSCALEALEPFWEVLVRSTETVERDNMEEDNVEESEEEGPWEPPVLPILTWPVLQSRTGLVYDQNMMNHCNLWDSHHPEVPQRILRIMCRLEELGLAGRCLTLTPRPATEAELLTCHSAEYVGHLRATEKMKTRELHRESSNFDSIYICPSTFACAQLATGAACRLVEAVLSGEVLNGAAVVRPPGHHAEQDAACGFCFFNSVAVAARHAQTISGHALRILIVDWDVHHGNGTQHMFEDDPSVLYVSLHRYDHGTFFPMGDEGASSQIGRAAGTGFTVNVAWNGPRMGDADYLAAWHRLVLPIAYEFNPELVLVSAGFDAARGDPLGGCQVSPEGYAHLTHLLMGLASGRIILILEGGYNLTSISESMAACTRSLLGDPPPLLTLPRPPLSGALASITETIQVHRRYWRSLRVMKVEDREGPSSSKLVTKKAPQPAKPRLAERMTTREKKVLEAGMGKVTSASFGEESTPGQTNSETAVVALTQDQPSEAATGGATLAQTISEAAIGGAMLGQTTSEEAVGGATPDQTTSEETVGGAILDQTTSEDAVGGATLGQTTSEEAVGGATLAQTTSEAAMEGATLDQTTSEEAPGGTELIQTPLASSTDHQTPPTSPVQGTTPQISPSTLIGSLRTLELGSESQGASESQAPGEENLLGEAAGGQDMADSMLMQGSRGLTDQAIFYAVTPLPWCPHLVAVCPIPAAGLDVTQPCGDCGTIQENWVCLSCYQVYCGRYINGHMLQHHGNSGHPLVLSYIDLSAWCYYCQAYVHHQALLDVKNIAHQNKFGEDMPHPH
Assay: Inhibition of HDAC6 (unknown origin) using fluorogenic tetrapeptide RHKK(Ac) substrate by fluorescence assay

IC50: 3 nM
SMILES: O=C1CC[C@@H](C(=O)N[C@H](CCCCCS)C(=O)Nc2ccccc2)N1
